In PubChem BioAssay (NCI):
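Following 48 hours of exposure in 96-well plates, responses at five concentrations were used to interpolate endpoints linearly. The concentration for 50% growth inhibition is given as GI50. TGI denotes the concentration required for complete inhibition of growth.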

Tests used:
Test in all cases: inhibition of tumour cell growth, NCI panel, 48 h
[1] = system: HT29 colon
[2] = system: M14 melanoma
[3] = system: RXF 393 renal
[4] = system: HCT-116 colon
[5] = system: A549 NSCLC
[6] = system: CCRF-CEM leukemia
[7] = system: UO-31 renal
[8] = system: HOP-62 NSCLC
[9] = system: SNB-75 CNS
[10] = system: NCI-H522 lung

SMILES	GI50 [1]	TGI [1]	GI50 [2]	TGI [2]	GI50 [3]	TGI [3]	GI50 [4]	TGI [4]	GI50 [5]	TGI [5]	GI50 [6]	TGI [6]	GI50 [7]	TGI [7]	GI50 [8]	TGI [8]	GI50 [9]	TGI [9]	GI50 [10]	TGI [10]
C#COc1cccc(Nc2ncnc3cc(NC(=O)[C@H](C)Cl)ccc23)c1	2.21 µM	> 62.5 µM	2.27 µM	> 62.5 µM	3.34 µM	39.3 µM	2.23 µM	> 62.5 µM	3.18 µM	> 62.5 µM	2.41 µM	> 62.5 µM	7.94 µM	> 62.5 µM	6.35 µM	> 62.5 µM	2.6 µM	> 62.5 µM	1.67 µM	8.29 µM
COc1cccc(C2C3=C(COC3=O)N(CCO)c3cc4c(cc32)OCO4)c1 (stereo unspecified)	0.154 µM	1.58 µM	0.25 µM	> 11 µM	0.0994 µM	0.352 µM	0.235 µM	> 16.1 µM	0.631 µM	> 50 µM	0.274 µM	> 50 µM	0.297 µM	> 50 µM	0.598 µM	> 50 µM	0.151 µM	1.07 µM	0.051 µM	0.187 µM
C#CCN(C(=O)C(F)(F)F)c1ccc(C(=O)c2ccc(N(CC#C)C(=O)C(F)(F)F)cc2)cc1	–	45.4 µM	–	> 100 µM	–	> 100 µM	–	> 100 µM	–	> 100 µM	–	> 100 µM	–	> 100 µM	–	> 100 µM	–	> 100 µM	–	49.4 µM
COc1cc(C2C3=C(COC3=O)N(CCO)c3cc4c(cc32)OCO4)cc(OC)c1O (stereo unspecified)	1.38 µM	5.32 µM	1.49 µM	7.64 µM	0.576 µM	2.11 µM	1.88 µM	> 26.3 µM	5.62 µM	> 50 µM	1.51 µM	> 50 µM	2.02 µM	> 37.2 µM	2.35 µM	> 50 µM	1.12 µM	3.51 µM	0.0267 µM	0.289 µM
COc1cc(NCCN=C(N)NC(N)=NC(C)C)c2ncccc2c1	7.91 µM	> 100 µM	22.6 µM	> 100 µM	> 38.5 µM	> 100 µM	3.63 µM	> 100 µM	37.3 µM	> 100 µM	16.4 µM	> 100 µM	> 100 µM	> 100 µM	28.5 µM	> 100 µM	2.48 µM	13.8 µM	3.61 µM	40.7 µM
Cc1ccc(NCCN(C)C)c2c(=O)c3ccccc3sc12	1.62 µM	3.77 µM	1.59 µM	3.05 µM	1.96 µM	4.59 µM	1.47 µM	2.8 µM	1.35 µM	3.4 µM	2.12 µM	6.18 µM	1.28 µM	2.85 µM	1.55 µM	3.11 µM	1.49 µM	3.08 µM	1.89 µM	5.38 µM
COc1ccc(C2C=C(c3ccc(Cl)cc3)N=C3SC=C(C)N32)c(Br)c1 (stereo unspecified)	3.62 µM	12.7 µM	3.99 µM	15.7 µM	2.39 µM	9.59 µM	2.58 µM	11 µM	3 µM	24.7 µM	2.37 µM	11.8 µM	3.26 µM	15.4 µM	3.96 µM	13.4 µM	3.77 µM	16.7 µM	2.96 µM	9.29 µM
COc1cccc2c1C(=O)OC2c1cccc2ccccc12 (stereo unspecified)	–	> 100 µM	–	> 100 µM	–	98.6 µM	–	> 100 µM	–	> 100 µM	–	> 100 µM	–	> 100 µM	–	62.4 µM	–	68.4 µM	–	> 100 µM
Cc1cc(Nc2cc(N3CCN(C)CC3)nc(Sc3ccc(NC(=O)C4CC4)cc3)n2)n[nH]1	1.18 µM	> 10 µM	1.48 µM	> 10 µM	2.17 µM	> 10 µM	0.273 µM	> 10 µM	2.18 µM	> 10 µM	0.00613 µM	> 10 µM	3.54 µM	> 10 µM	2.99 µM	> 10 µM	2.71 µM	> 10 µM	4.16 µM	> 10 µM
Nc1nc(N)c2cc(Sc3cccc(C(F)(F)F)c3)ccc2n1	–	8.16 µM	–	2.21 µM	1.01 µM	2.53 µM	–	1.33 µM	–	13.2 µM	–	15.3 µM	–	9.84 µM	–	15.9 µM	–	15.9 µM	–	8.34 µM
CN(C)c1ccc(/C=c2/c3ccccc3n3c2c2cc(F)ccc2[n+]3C)cc1	3.49 µM	40.8 µM	4.02 µM	22.9 µM	5.91 µM	21.8 µM	4.78 µM	> 100 µM	6.04 µM	27.2 µM	2.79 µM	46.1 µM	8.21 µM	> 34.3 µM	8.6 µM	26.4 µM	8.07 µM	20.3 µM	4.57 µM	> 41.1 µM
CCOC(=O)/C(=C/c1ccc(N(CCC#N)CCC#N)cc1C)NC(=O)/C=C/c1ccccc1	–	> 100 µM	–	> 100 µM	–	> 100 µM	–	> 100 µM	–	> 100 µM	–	> 100 µM	–	> 100 µM	–	> 100 µM	–	> 100 µM	–	> 100 µM
O=c1cc(-c2ccccc2)oc2cc(OC/C(=N/O)c3ccc(F)cc3)ccc12	29.6 µM	> 50 µM	46.7 µM	> 50 µM	14 µM	40.2 µM	23.4 µM	> 50 µM	20.1 µM	> 50 µM	23.7 µM	> 50 µM	14.7 µM	> 50 µM	> 50 µM	> 50 µM	> 50 µM	> 50 µM	14.9 µM	> 50 µM
Cc1cc(=O)[nH]c(CNC(=O)c2cccc(C(=O)NCc3cc(=O)[nH]c(C)n3)c2)n1	–	> 100 µM	–	> 100 µM	–	> 100 µM	–	> 100 µM	–	> 100 µM	–	> 100 µM	–	> 100 µM	–	> 100 µM	–	> 100 µM	–	> 100 µM
Oc1[nH]c2ccccc2c1N=Nc1c(F)c(F)c(F)c(F)c1F	–	> 100 µM	–	> 100 µM	–	> 100 µM	–	> 100 µM	–	> 100 µM	–	16.5 µM	–	> 91.8 µM	–	> 100 µM	–	> 100 µM	–	47.7 µM
CCOC(=O)C1([Se]c2ccccc2)CCCC1=O (stereo unspecified)	–	> 100 µM	–	47.2 µM	–	21.3 µM	–	30.9 µM	–	> 100 µM	–	56.8 µM	–	51.6 µM	–	> 100 µM	–	69.1 µM	–	15.5 µM
O=C1c2ccccc2C(=O)c2sc(Nc3ccccc3Cl)nc21	–	45.4 µM	–	13.1 µM	–	30 µM	–	22.9 µM	–	46.2 µM	–	9.56 µM	–	24.4 µM	–	33.3 µM	–	27.1 µM	–	9.61 µM
O=C1C2C3C=C4c5ccccc5N(c5ccccc5)C4(C2C(=O)N1c1ccc(Br)cc1)[C@H]1C(=O)N(c2ccc(Br)cc2)C(=O)[C@@H]31 (stereo partly specified)	–	> 100 µM	–	> 100 µM	–	> 100 µM	–	> 100 µM	–	> 100 µM	–	> 100 µM	–	> 100 µM	–	> 100 µM	–	> 100 µM	–	> 100 µM
O=C(c1ccccc1)n1c(-c2ccccc2)cs/c1=N\S(=O)(=O)c1ccc(N2N=C3c4ccccc4CC3C2c2cccs2)cc1 (stereo unspecified)	73.7 µM	> 100 µM	33 µM	> 100 µM	37.1 µM	> 100 µM	30.5 µM	> 100 µM	39.5 µM	> 100 µM	41.3 µM	> 100 µM	98.1 µM	> 100 µM	23.7 µM	57.1 µM	> 100 µM	> 100 µM	32.7 µM	> 100 µM
COc1ccc(C(CC(=O)c2ccccc2)C(C(=O)c2ccccc2)C(c2ccc(OC)cc2)C2C(=O)NC(=S)NC2=O)cc1 (stereo unspecified)	21.3 µM	> 100 µM	36.9 µM	> 100 µM	18.2 µM	> 100 µM	15.4 µM	37.4 µM	8.96 µM	75.7 µM	11.8 µM	> 100 µM	7.32 µM	26.1 µM	21.1 µM	> 100 µM	31.2 µM	> 100 µM	11.9 µM	35.1 µM
Cc1nc2sccn2c1C(=O)NC(=O)Nc1ccc(Cl)cc1	–	> 100 µM	–	> 100 µM	–	> 100 µM	–	> 100 µM	–	> 100 µM	–	> 100 µM	–	> 100 µM	–	> 100 µM	–	50.8 µM	–	> 100 µM
CN1CCN(Cc2ccc3c(NNC(=O)c4ccccc4)nc4cc(F)ccc4n23)CC1	0.587 µM	> 49 µM	0.252 µM	12.9 µM	0.683 µM	21.3 µM	0.316 µM	16 µM	0.473 µM	21.8 µM	0.225 µM	> 100 µM	0.0681 µM	3.79 µM	0.27 µM	> 100 µM	0.436 µM	> 25.8 µM	0.55 µM	12.9 µM
CC[N+](C)(CC)CC(C)(C)C(=O)/C=C/c1ccc(/C=C/C(=O)C(C)(C)C[N+](C)(CC)CC)cc1	–	> 100 µM	–	> 100 µM	–	> 100 µM	–	> 100 µM	–	> 100 µM	–	> 100 µM	–	> 100 µM	–	> 100 µM	–	> 100 µM	–	> 100 µM
